{"source": "ChEMBL document CHEMBL3785076", "about": "“Disposition of valproic acid in man” (Eur J Clin Pharmacol, 1977)", "key": {"[1]": {"assay": "Plasma concentration in healthy human subjects (6 subjects) at 600 mg, po administered as single enteric-coated compound dose measured after 2 hrs by GLC method", "type": "ADME, organism-based"}, "[2]": {"assay": "Plasma concentration in healthy human subjects (6 subjects) at 600 mg, po administered as single enteric-coated compound dose measured after 3 hrs by GLC method", "type": "ADME, organism-based"}, "[3]": {"assay": "Plasma concentration in healthy human subjects (6 subjects) at 600 mg, po administered as single enteric-coated compound dose measured after 4 hrs by GLC method", "type": "ADME, organism-based"}, "[4]": {"assay": "Plasma concentration in healthy human subjects (6 subjects) at 600 mg, po administered as single enteric-coated compound dose measured after 6 hrs by GLC method", "type": "ADME, organism-based"}, "[5]": {"assay": "Plasma concentration in healthy human subjects (6 subjects) at 600 mg, po administered as single enteric-coated compound dose measured after 10 hrs by GLC method", "type": "ADME, organism-based"}, "[6]": {"assay": "Plasma concentration in healthy human subjects (6 subjects) at 600 mg, po administered as single enteric-coated compound dose measured after 24 hrs by GLC method", "type": "ADME, organism-based"}, "[7]": {"assay": "Plasma concentration in healthy human subjects (6 subjects) at 600 mg, po administered as single enteric-coated compound dose measured after 30 hrs by GLC method", "type": "ADME, organism-based"}, "[8]": {"assay": "Plasma concentration in healthy human subjects (6 subjects) at 600 mg, po administered as single enteric-coated compound dose measured after 48 hrs by GLC method", "type": "ADME, organism-based"}, "[9]": {"assay": "Plasma concentration in healthy human subjects (6 subjects) at 600 mg, po administered as single enteric-coated compound dose measured after 72 hrs by GLC method", "type": "ADME, organism-based"}, "Homo sapiens [10]": {"test_system": "Homo sapiens", "assay": "Drug lag time in healthy human subjects (6 subjects) at 600 mg, po administered as single enteric-coated compound dose measured by GLC method", "type": "ADME, organism-based", "details": "in vivo"}, "[11]": {"assay": "Tmax in healthy human subjects (6 subjects) at 600 mg, po administered as single enteric-coated compound dose measured by GLC method", "type": "ADME, organism-based", "details": "in vivo"}, "[12]": {"assay": "Elimination rate constant during beta-phase in healthy human subjects (6 subjects) at 600 mg, po administered as single enteric-coated compound dose measured by GLC method", "type": "ADME, organism-based", "details": "in vivo"}, "[13]": {"assay": "Terminal half life in healthy human subjects (6 subjects) at 600 mg, po administered as single enteric-coated compound dose measured by GLC method", "type": "ADME, organism-based", "details": "in vivo, read-out: beta t1/2 (converted)"}, "[14]": {"assay": "AUC in healthy human subjects (6 subjects) at 600 mg, po administered as single enteric-coated compound dose measured by GLC method", "type": "ADME, organism-based", "details": "in vivo"}, "Homo sapiens [15]": {"test_system": "Homo sapiens", "assay": "Apparent volume of distribution in healthy human subjects (6 subjects) at 600 mg, po administered as single enteric-coated compound dose measured by GLC method", "type": "ADME, organism-based", "details": "in vivo"}, "[16]": {"assay": "Total plasma clearance in healthy human subjects (6 subjects) at 600 mg, po administered as single enteric-coated compound dose measured by GLC method", "type": "ADME, organism-based"}, "Homo sapiens [17]": {"test_system": "Homo sapiens", "assay": "Mean steady state plasma concentration in healthy human subjects (6 subjects) at 1200 mg, po for 12 days administered as enteric-coated compound dose by GLC method", "type": "ADME, organism-based", "details": "in vivo, 288 h"}, "[18]": {"assay": "Steady state plasma concentration before morning dose in healthy human subjects (6 subjects) at 1200 mg, po for 12 days administered as enteric-coated compound dose by GLC method", "type": "ADME, organism-based", "details": "read-out: Cpss"}, "[19]": {"assay": "Half life at steady state in healthy human subjects (6 subjects) at 1200 mg, po for 12 days administered as enteric-coated compound dose by GLC method", "type": "ADME, organism-based", "details": "in vivo, read-out: t1/2ss (converted)"}, "[20]": {"assay": "Plasma protein binding in healthy human subjects (6 subjects) measured under steady state conditions by equilibrium dialysis method", "type": "ADME, cell-free", "details": "read-out: PPB (converted)"}, "[21]": {"assay": "Plasma protein binding in healthy human subjects (6 subjects) assessed as unbound fraction level measured under steady state conditions by equilibrium dialysis method", "type": "ADME, cell-free"}, "[22]": {"assay": "Drug concentration in saliva of healthy human subjects (6 subjects) at 600 mg, po administered as single enteric-coated compound", "type": "ADME, organism-based", "details": "in vivo"}, "[23]": {"assay": "Drug concentration in saliva of healthy human subjects (6 subjects) at 1200 mg, po for 12 days administered as enteric-coated compound dose measured under steady state conditions by GLC method relative to plasma drug level", "type": "ADME, organism-based", "details": "in vivo, 288 h"}, "[24]": {"assay": "Ratio of urinary excretion of valproic acid to urinary excretion of VPA-conjugates in healthy human subjects (6 subjects) at 600 mg, po administered as single enteric-coated compound", "type": "ADME, organism-based, Urine", "details": "in vivo"}, "[25]": {"assay": "Ratio of urinary excretion of valproic acid to urinary excretion of VPA-conjugates in healthy human subjects (6 subjects) at 1200 mg, po for 12 days administered as enteric-coated compound dose measured during 24 hrs relative to total drug excretion", "type": "ADME, organism-based, Urine", "details": "in vivo"}, "[26]": {"assay": "Half life in human measured over 24 hrs", "type": "ADME, organism-based", "details": "in vivo"}}, "data": [{"smiles": "CCCC(CCC)C(=O)[O-].[Na+]", "note": "[VALPROATE SODIUM]", "values": [{"measurement": "concentration at 2 h", "setting": "[1]", "result": 10300, "unit": "ng/mL"}, {"measurement": "concentration at 3 h", "setting": "[2]", "result": 42800, "unit": "ng/mL"}, {"measurement": "concentration at 4 h", "setting": "[3]", "result": 58100, "unit": "ng/mL"}, {"measurement": "concentration at 6 h", "setting": "[4]", "result": 53200, "unit": "ng/mL"}, {"measurement": "concentration at 10 h", "setting": "[5]", "result": 38400, "unit": "ng/mL"}, {"measurement": "concentration at 24 h", "setting": "[6]", "result": 17600, "unit": "ng/mL"}, {"measurement": "concentration at 30 h", "setting": "[7]", "result": 14000, "unit": "ng/mL"}, {"measurement": "concentration at 48 h", "setting": "[8]", "result": 6500, "unit": "ng/mL"}, {"measurement": "concentration at 72 h", "setting": "[9]", "result": 2500, "unit": "ng/mL"}, {"measurement": "Tlag", "setting": "Homo sapiens [10]", "result": 1.3, "unit": "h"}, {"measurement": "Tmax", "setting": "[11]", "result": 3.7, "unit": "h"}, {"measurement": "k el", "setting": "[12]", "result": "1.25e-05", "unit": "s⁻¹"}, {"measurement": "half-life", "setting": "[13]", "result": 15.9, "unit": "h"}, {"measurement": "AUC", "setting": "[14]", "result": 1210, "unit": "µg·h/mL"}, {"measurement": "Vbeta", "setting": "Homo sapiens [15]", "result": 0.15, "unit": "L/kg"}, {"measurement": "CL/F", "setting": "[16]", "result": 0.107, "unit": "mL/min/kg"}, {"measurement": "Cpss", "setting": "Homo sapiens [17]", "result": 81.3, "unit": "µg/mL"}, {"measurement": "concentration at 288 h", "setting": "[18]", "result": 75300, "unit": "ng/mL"}, {"measurement": "half-life", "setting": "[19]", "result": 17.3, "unit": "h"}, {"measurement": "fraction unbound", "setting": "[20]", "result": 0.067}, {"measurement": "fraction unbound", "setting": "[21]", "result": 0.067}, {"measurement": "Drug uptake", "setting": "[22]", "result": "< 0.5", "unit": "µg/mL"}, {"measurement": "Drug uptake", "setting": "[23]", "result": 1.3, "unit": "%"}, {"measurement": "Ratio", "setting": "[24]", "result": 0.158}, {"measurement": "Ratio", "setting": "[25]", "result": 1.127}, {"measurement": "half-life", "setting": "[26]", "result": 8, "unit": "h"}]}]}
